Measured values: US20230131111A1, “BIODEGRADABLE POLYIMIDAZOLIUMS AND OLIGOIMIDAZOLIUMS” (Nanyang Technological University, priority 2020, published 2023)

Columns and labels:
MDR A. baumannii AB-1 = assay: Murine septicemia model; assay type: in vivo, BALB/c mice; conditions: single dose 15 mg/kg
Method: (§1) Murine septicemia model was used to evaluate the in vivo efficacy of PIM1D. The experiment for mice septicemia infection model of MDR P. aeruginosa PAER and MDR A. baumannfi AB-1 was conducted within guidance of approved protocol by the Institutional Care and Use Committee of Nanyang Technological University (NTU IACUC). The experiments for murine septicemia infection model of wild type P. aeruginosa PAO1 and methicillin-resistant S. aureus MRSA USA300 were conducted following protocol reviewed and approved by Animal Ethics and Welfare Committee (AEWC) of Ningbo University. BALB/c female mice (8-9 weeks of age) were used to test the septic shock protection efficacy for all murine infection models. Exponential phase bacteria were washed twice with saline, and re-suspended into the same volume of saline. 300 μL bacterial suspension with varied concentration in 5% mucin was introduced into each mouse via IP injection to first determine the lethal bacterial dosage, and the determined concentration was then used in the following study. […] Mouse survival was monitored over 7 days. […] Bacterial loads were also evaluated in the spleen, liver and kidney of the animal. […] The bacterial levels were analyzed with one-way classification analysis of variance (ANOVA) and two-tailed student's t-test (Graphpad Prism for Windows, version 7).

P. aeruginosa PAO1 [1] = assay: Killing of stationary phase bacteria; assay type: cell-based, Pseudomonas aeruginosa
Excerpt: We used a previously reported method (S. Meylan et al., Cell Chem. Biol. 2017, 24, 195-206) to determine the effect of PIM1 and other antibiotics on the survival of stationary phase P. aeruginosa PAO1, except the stationary-phase cells were obtained by overnight growth in MHB, and we compared PIM1 with GEN. The results were compared to those with P. aeruginosa PAO1 harvested from MHB culture at the mid-Log growth phase. In addition, we tested the ability of an energy source to potentiate PIM1 killing of stationary-phase P. aeruginosa by addition of fumarate (15 mM) to the stationary-phase cells.

[2] = test system: K. pneumoniae SGH10 (clinical strain); assay: MIC90 broth microdilution; assay type: cell-based, Klebsiella pneumoniae
A. baumannii AB-1 (MDR) = assay: MIC90 broth microdilution; assay type: cell-based, Acinetobacter baumannii
[3] = test system: Burkholderia thailandensis 700388; assay type: cell-based; design: MIC90 Burkholderia thailandensis 700388: unit not given here; conditions: for MIC90 Burkholderia thailandensis 700388: naturally colistin-resistant
P. aeruginosa PAO1 [4] = assay: Propidium iodide (PI) staining; assay type: cell-based, Pseudomonas aeruginosa; conditions: 1 h incubation
Method: P. aeruginosa PAO1 was used in the PI experiments. Cells grown in MHB were harvested in mid-Log phase and resuspended in fresh MHB. PIM1 or colistin (positive control) was added at the indicated concentrations. After 1-hour incubation with the antimicrobials, the cell suspensions were sampled to determine cells numbers by plate counting. The remaining cells were washed with PBS and stained with PI (15 μg/mL) according to the manufacturer's protocol. Attune N×T Flow cytometry (Thermo Fisher Scientific, USA) was used to determine the percent of cells that had taken up PI (dead cells). A Zeiss LSM800 confocal microscope was used to image cells on a polylysine-coated petri-dish (MatTek Corporation, USA).

A. baumannii X26 = assay: MIC90 broth microdilution; assay type: cell-based, Acinetobacter baumannii; design: MIC90 A. baumanii X26 (MDR): unit not given here
[5] = test system: K. pneumoniae BAK085 (MDR); assay: MIC90 broth microdilution; assay type: cell-based, Klebsiella pneumoniae
3T3 cells = assay: Mammalian cell cytotoxicity, MTT; assay type: cell-based, Mouse; conditions: half-maximal inhibition of cell viability
HepG2 cells = assay: Mammalian cell cytotoxicity, MTT; assay type: cell-based, Human
P. aeruginosa PAER = assay: MIC90 broth microdilution; assay type: cell-based, Pseudomonas aeruginosa
K. pneumoniae M7 (MDR) = assay: MIC90 broth microdilution; assay type: cell-based, Klebsiella pneumoniae
A. baumannii X40 (EDR) = assay: MIC90 broth microdilution; assay type: cell-based, Acinetobacter baumannii
A. baumannii X39 = assay: MIC90 broth microdilution; assay type: cell-based, Acinetobacter baumannii; design: MIC90 A. baumanii X39 (XDR): unit not given here
E. coli 958 (MDR) = assay: MIC90 broth microdilution; assay type: cell-based, Escherichia coli
[6] = test system: P. aeruginosa PAES (clinical); assay: MIC90 broth microdilution; assay type: cell-based, Pseudomonas aeruginosa
P. aeruginosa PAO1 [7] = assay: MIC90 broth microdilution; assay type: cell-based, Pseudomonas aeruginosa
A549 cells = assay: Mammalian cell cytotoxicity, MTT; assay type: cell-based, Human
E. cloacae ECLOS (MDR) = assay: MIC90 broth microdilution; assay type: cell-based, Enterobacter cloacae
K. pneumoniae KPNR (MDR) = assay: MIC90 broth microdilution; assay type: cell-based, Klebsiella pneumoniae
P. aeruginosa PAK pmrB12 = assay: MIC90 broth microdilution; assay type: cell-based, Pseudomonas aeruginosa
E. cloacae CRE (MDR) = assay: MIC90 broth microdilution; assay type: cell-based, Enterobacter cloacae
HEK293 cells = assay: Mammalian cell cytotoxicity, MTT; assay type: cell-based, Human
K. pneumoniae (#13883) = assay: Neutropenic lung infection model; assay type: in vivo, BALB/c mice
Method: (§2) Immunosuppression was induced by IP injection of cyclophosphamide (150 mg/kg) at day 4 and cyclophosphamide (100 mg/kg) at day 1 into BALB/c female mice (8-9 weeks of age) before infection was introduced. Lung infection was established by intratracheal delivery of MRSA USA300 or K. pneumoniae (#13883). […] The mice were monitored for survival over one week. In a separate experiment, mice lungs were harvested 26 h post-infection and homogenized, followed by plating to check the bacterial burden. The animal study protocols were approved by animal ethics and welfare committee at Ningbo University.

P. aeruginosa PAO1 [8] = assay: Laboratory evolution of resistance, sequential passage; conditions: 30 days of passage
P. aeruginosa PAO1 [9] = assay: Membrane electric potential, DiS-C3-(5); assay type: cell-based, Pseudomonas aeruginosa; conditions: 30 min after addition
Method: Agents Chemother. 2000, 44, 3317-3321). […] The cell suspension (180 μL) was then added to each well of a 96-well plate, and the test compounds were added to the wells as indicated to bring the final mixture to 200 μL. Fluorescence was measured in each well every 2 min in a Spark 10M microtiter plate reader (Tecan, Switzerland) with excitation at 622 nm and emission 670 nm. Data were collected at 30 min after the addition of the test compound. Two independent experiments were conducted, and the data here are mean values±SD.

S. aureus USA300 (MRSA) = assay: MIC90 broth microdilution; assay type: cell-based, Staphylococcus aureus
[10] = test system: Mycobacterium bovis bacillus Calmette-Guérin; assay type: cell-based
S. aureus BAA40 (MRSA) = assay: MIC90 broth microdilution; assay type: cell-based, Staphylococcus aureus; design: unit not given here
E. faecalis 583 (VRE) = assay: MIC90 broth microdilution; assay type: cell-based, Enterococcus faecalis; design: unit not given here
[11] = test system: methicillin-resistant S. aureus MRSA USA300; assay: Murine septicemia model, immunosuppressed mice; assay type: in vivo, BALB/c mice; conditions: 15 mg/kg IP at 2 h and 26 h post-infection
Method: as §1, with “7). […]” for “7).”

MRSA USA300 = assay: Neutropenic lung infection model; assay type: in vivo, BALB/c mice; conditions: 20 mg/kg intratracheal, one week
Method: as §2

[12] = half-maximal inhibition of cell viability

C[C@@H](O)[C@H]1C(=O)N2C(C(=O)O)=C(SCCN=CN)C[C@H]12 [Imp, Imipenem]
survival (MDR A. baumannii AB-1): 80%

gentamicin
susceptibility of stationary phase cells to killing (P. aeruginosa PAO1 [1]; compared with killing by colistin, 4-h exposure): much less susceptible | bactericidal activity on stationary-phase cells with fumarate (P. aeruginosa PAO1 [1]; fumarate 15 mM): restored

colistin
MIC90 K. pneumoniae SGH10 (clinical strain) [2]: 2 mg/L | MIC90 A. baumanii AB-1 (MDR) (A. baumannii AB-1 (MDR)): 2 mg per mL | MIC90 A. baumannii AB-1 (MDR) (A. baumannii AB-1 (MDR)): 2 mg/L | MIC90 B. Thailandensis 700388 [3]: >128 mg/L | MIC90 Burkholderia thailandensis 700388 [3]: >128 | propidium iodide uptake (P. aeruginosa PAO1 [4]): almost all cells treated with colistin were stained | MIC90 A. baumanii X26 (MDR) (A. baumannii X26): 2 | MIC90 A. baumannii X26 (EDR) (A. baumannii X26): 2 mg/L | MIC90 K. pneumoniae BAK085 (MDR) [5]: 2 mg/L | IC50 Mouse fibroblast (3T3) (3T3 cells): >1024 μg per mL | IC50 Human liver (HepG2) (HepG2 cells; MTT): >1024 µg/mL | IC50 Human liver (HepG2) (HepG2 cells; [12]): >1024 μg per mL | MIC90 P. aeruginosa PAER (P. aeruginosa PAER): 1 mg per mL | MIC90 P. aeruginosa PAER (MDR) (P. aeruginosa PAER): 1 mg/L | MIC90 K. pneumoniae M7 (MDR) (K. pneumoniae M7 (MDR)): 16 to 32 mg/L | MIC90 A. baumannii X40 (EDR) (A. baumannii X40 (EDR)): 8 mg/L | MIC90 A. baumanii X39 (XDR) (A. baumannii X39): 4-8 | MIC90 A. baumannii X39 (EDR) (A. baumannii X39): 4 to 8 mg/L | MIC90 E. coli 958 (MDR) (E. coli 958 (MDR)): 2 mg/L | MIC90 P. aeruginosa PAES (clinical) [6]: 2 mg/L | MIC90 P. aeruginosa PAO1 (P. aeruginosa PAO1 [7]): 2 mg/L | IC50 Human epithelial (A549) (A549 cells; MTT): >1,024 μg/ml | IC50 Human epithelial (A549) (A549 cells; [12]): >1024 μg per mL | MIC90 E. cloacae ECLOS (MDR) (E. cloacae ECLOS (MDR)): 16 mg/L | MIC90 K. pneumoniae KPNR (MDR) (K. pneumoniae KPNR (MDR)): 2 mg/L | MIC90 P. aeruginosa PAK pmrB12 (P. aeruginosa PAK pmrB12): 16 mg/L | MIC90 E. cloacae CRE (MDR) (E. cloacae CRE (MDR)): 2 mg/L | IC50 Human kidney (HEK293) (HEK293 cells; MTT): 64 µg/mL | IC50 Human kidney (HEK293) (HEK293 cells; [12]): 64 μg per mL | survival (K. pneumoniae (#13883); 20 mg/kg intratracheal, one week): survived | reduction of K. pneumoniae in lung (K. pneumoniae (#13883); single 20 mg/kg intratracheal, versus infection control): similar

O=C(O)c1cn(C2CC2)c2cc(N3CCNCC3)c(F)cc2c1=O [ciprofloxacin]
emergence of resistant mutants (P. aeruginosa PAO1 [8]): ciprofloxacin-resistant mutants emerged

gramicidin
DiS-C3-(5) fluorescence (dissipation of membrane potential) (P. aeruginosa PAO1 [9]): dramatic increase in DiS-C3-(5) fluorescence

polymyxin B
MIC90 A. baumanii AB-1 (MDR) (A. baumannii AB-1 (MDR)): 2 mg per mL | MIC90 Burkholderia thailandensis 700388 [3]: >128 | MIC90 S. aureus USA300 (MRSA) (S. aureus USA300 (MRSA)): 64-128 mg per mL | MIC90 A. baumanii X26 (MDR) (A. baumannii X26): 4 | MIC90 Mycobacterium bovis bacillus Calmette-Guérin [10]: 64 mg per mL | IC50 Mouse fibroblast (3T3) (3T3 cells): 920 μg per mL | IC50 Human liver (HepG2) (HepG2 cells; [12]): 765 μg per mL | MIC90 P. aeruginosa PAER (P. aeruginosa PAER): 2 mg per mL | MIC90 A. baumanii X39 (XDR) (A. baumannii X39): 8 | MIC90 S. aureus BAA40 (MRSA) (S. aureus BAA40 (MRSA)): 64-128 | MIC90 E. faecalis 583 (VRE) (E. faecalis 583 (VRE)): >128 | IC50 Human epithelial (A549) (A549 cells; [12]): 879 μg per mL | IC50 Human kidney (HEK293) (HEK293 cells; [12]): 240 μg per mL

CN[C@H](CC(C)C)C(=O)N[C@H]1C(=O)N[C@@H](CC(N)=O)C(=O)N[C@H]2C(=O)N[C@H]3C(=O)N[C@H](C(=O)N[C@H](C(=O)O)c4cc(O)cc(O)c4-c4cc3ccc4O)[C@H](O)c3ccc(c(Cl)c3)Oc3cc2cc(c3O[C@@H]2O[C@H](CO)[C@@H](O)[C@H](O)[C@H]2O[C@H]2C[C@](C)(N)[C@H](O)[C@H](C)O2)Oc2ccc(cc2Cl)[C@H]1O [vancomycin]
survival [11]: all mice survived | survival (MRSA USA300): 40%
